Assay results: patent US8796466B2, “Hepatitis C virus inhibitors” (Bristol-Myers Squibb Company, priority 2009, dated 2014)
Where two headings read alike, the source gives them in different places.

Tested on: HCV 1b genotype
Assay: HCV Replicon assay (HCV 1b genotype)
Type: cell-based, Hepatitis C virus
Conditions: Hepatitis C virus, HCV 1b genotype replicon
Summary of the method: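 HCV-neo replicon cells, wild-type plus lines carrying NS5A-region mutations, were exposed to compound; luciferase-reporter replicon variants were also used.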

[1] = Effective 50% inhibitory concentration, read-out: 1b EC50
[2] = class symbol, read-out: Range (EC50 values against HCV 1b)

SMILES | EC50 [1] [nM] | EC50 [2] [nM]
COC(=O)N[C@H](C(=O)N1C[C@@H](C)C[C@H]1c1ncc(-c2ccc(C#Cc3ccc(-c4cnc([C@@H]5C[C@H](C)CN5C(=O)[C@@H](NC(=O)OC)C5CCOCC5)[nH]4)cc3)cc2)[nH]1)C1CCOCC1 [Example M12.3, dimethyl (1,2-ethynediylbis(4,1-phenylene-1H-imidazole-4,2-diyl((2S,4S)-4-methyl-2,1-pyrrolidinediyl)((1S)-2-oxo-1-(tetrahydro-2H-pyran-4-yl)-2,1-ethanediyl)))biscarbamate] | 0.014 | 0.002 to 0.099
COC(=O)N[C@H](C(=O)N1[C@@H]2C[C@@H]2C[C@H]1c1ncc(-c2cccc(C#Cc3cccc(-c4cnc([C@@H]5C[C@H]6C[C@H]6N5C(=O)[C@@H](NC(=O)OC)C5CCOCC5)[nH]4)c3)c2)[nH]1)C1CCOCC1 [Example J4, dimethyl (1,2-ethynediylbis(3,1-phenylene-1H-imidazole-4,2-diyl(1R,3S,5R)-2-azabicyclo[3.1.0]hexane-3,2-diyl((1S)-2-oxo-1-(tetrahydro-2H-pyran-4-yl)-2,1-ethanediyl)))biscarbamate] | – | 0.002 to 0.099
CN(C)[C@@H](C(=O)N1CCC[C@H]1c1ncc(-c2ccc(COCc3ccc(-c4cnc([C@@H]5CCCN5C(=O)[C@@H](c5ccccc5)N(C)C)[nH]4)cc3)cc2)[nH]1)c1ccccc1 [OL-14, (1R)-2-((2S)-2-(4-(4-(((4-(2-((2S)-1-((2R)-2-(dimethylamino)-2-phenylacetyl)-2-pyrrolidinyl)-1H-imidazol-5-yl)benzyl)oxy)methyl)phenyl)-1H-imidazol-2-yl)-1-pyrrolidinyl)-N,N-dimethyl-2-oxo-1-phenylethanamine] | – | 0.1 to 0.99
O=C([C@H](O)c1ccccc1)N1CCC[C@H]1c1nc(-c2ccc(COCc3cccc(-c4c[nH]c([C@@H]5CCCN5C(=O)[C@H](O)c5ccccc5)n4)c3)cc2)c[nH]1 [OL-21, (1R)-2-((2S)-2-(4-(3-(((4-(2-((2S)-1-((2R)-2-hydroxy-2-phenylacetyl)-2-pyrrolidinyl)-1H-imidazol-4-yl)benzyl)oxy)methyl)phenyl)-1H-imidazol-2-yl)-1-pyrrolidinyl)-2-oxo-1-phenylethanol] | – | 0.1 to 0.99
COC(=O)N[C@H](C(=O)N1C[C@@H](C)C[C@H]1c1ncc(-c2ccc(C#Cc3ccc(-c4cnc([C@@H]5C[C@H](C)CN5C(=O)[C@@H](NC(=O)OC)C5CCOCC5)[nH]4)cc3)cc2)[nH]1)C(C)C [Example M12.8, methyl ((1S)-2-((2S,4S)-2-(4-(4-((4-(2-((2S,4S)-1-((2S)-2-((methoxycarbonyl)amino)-3-methylbutanoyl)-4-methyl-2-pyrrolidinyl)-1H-imidazol-4-yl)phenyl)ethynyl)phenyl)-1H-imidazol-2-yl)-4-methyl-1-pyrrolidinyl)-2-oxo-1-(tetrahydro-2H-pyran-4-yl)ethyl)carbamate] | – | 0.002 to 0.099
COC(=O)N[C@@H](C(=O)N1CCC[C@H]1c1nc(-c2ccc(Oc3cccc(-c4c[nH]c([C@@H]5CCCN5C(=O)[C@H](NC(=O)OC)c5ccccc5)n4)c3)cc2)c[nH]1)c1ccccc1 [OL-6, methyl ((1R)-2-((2S)-2-(4-(3-(4-(2-((2S)-1-((2R)-2-((methoxycarbonyl)amino)-2-phenylacetyl)-2-pyrrolidinyl)-1H-imidazol-4-yl)phenoxy)phenyl)-1H-imidazol-2-yl)-1-pyrrolidinyl)-2-oxo-1-phenylethyl)carbamate] | – | 0.002 to 0.099
O=C([C@H](O)c1ccccc1)N1CCC[C@H]1c1nc(-c2ccc(Oc3cccc(-c4c[nH]c([C@@H]5CCCN5C(=O)[C@H](O)c5ccccc5)n4)c3)cc2)c[nH]1 [OL-5, (1R)-2-((2S)-2-(4-(3-(4-(2-((2S)-1-((2R)-2-hydroxy-2-phenylacetyl)-2-pyrrolidinyl)-1H-imidazol-4-yl)phenoxy)phenyl)-1H-imidazol-2-yl)-1-pyrrolidinyl)-2-oxo-1-phenylethanol] | 80 | 10 to 350
COC(=O)N[C@H](C(=O)N1C[C@@H](C)C[C@H]1c1nc(-c2ccc(C#Cc3ccc(-c4[nH]c([C@@H]5C[C@H](C)CN5C(=O)[C@@H](NC(=O)OC)C(C)C)nc4Cl)cc3)cc2)c[nH]1)C(C)C [Example M12.4, methyl ((1S)-1-(((2S,4S)-2-(4-(4-((4-(4-chloro-2-((2S,4S)-1-((2S)-2-((methoxycarbonyl)amino)-3-methylbutanoyl)-4-methyl-2-pyrrolidinyl)-1H-imidazol-5-yl)phenyl)ethynyl)phenyl)-1H-imidazol-2-yl)-4-methyl-1-pyrrolidinyl)carbonyl)-2-methylpropyl)carbamate] | – | 0.002 to 0.099
CN(C)[C@@H](C(=O)N1CCC[C@H]1c1ncc(-c2ccc(COCc3cccc(-c4cnc([C@@H]5CCCN5C(=O)[C@@H](c5ccccc5)N(C)C)[nH]4)c3)cc2)[nH]1)c1ccccc1 [OL-20, (1R)-2-((2S)-2-(4-(3-(((4-(2-((2S)-1-((2R)-2-(dimethylamino)-2-phenylacetyl)-2-pyrrolidinyl)-1H-imidazol-4-yl)benzyl)oxy)methyl)phenyl)-1H-imidazol-2-yl)-1-pyrrolidinyl)-N,N-dimethyl-2-oxo-1-phenylethanamine] | – | 0.1 to 0.99
COC(=O)N[C@H](C(=O)N1CCCC[C@H]1c1ncc(-c2ccc(C#Cc3ccc(-c4cnc([C@@H]5CCCCN5C(=O)[C@@H](NC(=O)OC)C(C)C)[nH]4)cc3)cc2)[nH]1)C(C)C [Example N6, methyl ((1S)-1-(((2S)-2-(4-(4-((4-(2-((2S)-1-((2S)-2-((methoxycarbonyl)amino)-3-methylbutanoyl)-2-piperidinyl)-1H-imidazol-4-yl)phenyl)ethynyl)phenyl)-1H-imidazol-2-yl)-1-piperidinyl)carbonyl)-2-methylpropyl)carbamate] | – | 10 to 350
COC(=O)N[C@H](C(=O)N1[C@@H]2C[C@@H]2C[C@H]1c1ncc(-c2ccc(C#Cc3ccc4c(ccc5nc([C@@H]6C[C@H]7C[C@H]7N6C(=O)[C@@H](NC(=O)OC)C(C)C)[nH]c54)c3)cc2)[nH]1)C(C)C [Example D-7, methyl ((1S)-1-(((1R,3S,5R)-3-(4-(4-((2-((1R,3S,5R)-2-((2S)-2-((methoxycarbonyl)amino)-3-methylbutanoyl)-2-azabicyclo[3.1.0]hex-3-yl)-1H-naphtho[1,2-d]imidazol-7-yl)ethynyl)phenyl)-1H-imidazol-2-yl)-2-azabicyclo[3.1.0]hex-2-yl)carbonyl)-2-methylpropyl)carbamate] | – | 0.002 to 0.099
COC(=O)N[C@H](C(=O)N1C[C@@H](C)C[C@H]1c1ncc(-c2ccc([C@H]3C[C@@H]3c3ccc(-c4cnc([C@@H]5C[C@H](C)CN5C(=O)[C@@H](NC(=O)OC)C5CCOCC5)[nH]4)cc3)cc2)[nH]1)C1CCOCC1 [Example M9.8, dimethyl ((1S,2S)-1,2-cyclopropanediylbis(4,1-phenylene-1H-imidazole-4,2-diyl((2S,4S)-4-methyl-2,1-pyrrolidinediyl)((1S)-2-oxo-1-(tetrahydro-2H-pyran-4-yl)-2,1-ethanediyl)))biscarbamate] | – | 0.002 to 0.099
COC(=O)N[C@@H](C(=O)N1CCC[C@H]1c1nc(-c2ccc(COc3ccc(-c4c[nH]c([C@@H]5CCCN5C(=O)[C@H](NC(=O)OC)c5ccccc5)n4)cc3)cc2)c[nH]1)c1ccccc1 [OL-8, methyl ((1R)-2-((2S)-2-(4-(4-((4-(2-((2S)-1-((2R)-2-((methoxycarbonyl)amino)-2-phenylacetyl)-2-pyrrolidinyl)-1H-imidazol-4-yl)benzyl)oxy)phenyl)-1H-imidazol-2-yl)-1-pyrrolidinyl)-2-oxo-1-phenylethyl)carbamate] | – | 0.002 to 0.099
COC(=O)N[C@H](C(=O)N1[C@@H]2C[C@@H]2C[C@H]1c1nc(-c2ccc(C#Cc3ccc(-c4[nH]c([C@@H]5C[C@H]6C[C@H]6N5C(=O)[C@@H](NC(=O)OC)C(C)C)nc4Cl)cc3)cc2)c[nH]1)C(C)C [Example M8, methyl ((1S)-1-(((1R,3S,5R)-3-(4-chloro-5-(4-((4-(2-((1R,3S,5R)-2-((2S)-2-((methoxycarbonyl)amino)-3-methylbutanoyl)-2-azabicyclo[3.1.0]hex-3-yl)-1H-imidazol-4-yl)phenyl)ethynyl)phenyl)-1H-imidazol-2-yl)-2-azabicyclo[3.1.0]hex-2-yl)carbonyl)-2-methylpropyl)carbamate] | – | 0.002 to 0.099
COC(=O)N[C@H](C(=O)N1[C@@H]2C[C@@H]2C[C@H]1c1nc(Cl)c(-c2ccc(C#Cc3ccc(-c4[nH]c([C@@H]5C[C@H]6C[C@H]6N5C(=O)[C@@H](NC(=O)OC)C5CCOCC5)nc4Cl)cc3)cc2)[nH]1)C1CCOCC1 [Example M9.2, dimethyl (1,2-ethynediylbis(4,1-phenylene(4-chloro-1H-imidazole-5,2-diyl)(1R,3S,5R)-2-azabicyclo[3.1.0]hexane-3,2-diyl((1S)-2-oxo-1-(tetrahydro-2H-pyran-4-yl)-2,1-ethanediyl)))biscarbamate] | – | 0.002 to 0.099
COC(=O)N[C@H](C(=O)N1CC(F)(F)C[C@H]1c1nc(-c2ccc(C#Cc3ccc(-c4c[nH]c([C@@H]5CC(F)(F)CN5C(=O)[C@@H](NC(=O)OC)C(C)C)n4)cc3)cc2)c[nH]1)C(C)C [Example N1, methyl ((1S)-1-(((2S)-2-(4-(4-((4-(2-((2S)-4,4-difluoro-1-((2S)-2-((methoxycarbonyl)amino)-3-methylbutanoyl)-2-pyrrolidinyl)-1H-imidazol-4-yl)phenyl)ethynyl)phenyl)-1H-imidazol-2-yl)-4,4-difluoro-1-pyrrolidinyl)carbonyl)-2-methylpropyl)carbamate] | – | 0.002 to 0.099
O=C([C@H](O)c1ccccc1)N1CCC[C@H]1c1nc(-c2ccc(CCc3ccc(-c4c[nH]c([C@@H]5CCCN5C(=O)[C@H](O)c5ccccc5)n4)cc3)cc2)c[nH]1 [OL-10, (1R,1′R)-2,2′-(1,2-ethanediylbis(4,1-phenylene-1H-imidazole-4,2-diyl(2S)-2,1-pyrrolidinediyl))bis(2-oxo-1-phenylethanol)] | – | 0.002 to 0.099
CCNC(=O)N[C@@H](C(=O)N1CCC[C@H]1c1nc(-c2ccc(COCc3ccc(-c4cnc([C@@H]5CCCN5C(=O)[C@H](NC(=O)NCC)c5ccccc5)[nH]4)cc3)cc2)c[nH]1)c1ccccc1 [OL-18, 1-ethyl-3-((1R)-2-((2S)-2-(4-(4-(((4-(2-((2S)-1-((2R)-2-((ethylcarbamoyl)amino)-2-phenylacetyl)-2-pyrrolidinyl)-1H-imidazol-5-yl)benzyl)oxy)methyl)phenyl)-1H-imidazol-2-yl)-1-pyrrolidinyl)-2-oxo-1-phenylethyl)urea] | – | 0.002 to 0.099
